Laboratory results published in article PMC10094593, “Chemical Space Virtual Screening against Hard-to-Drug RNA Methyltransferases DNMT2 and NSUN6” (International Journal of Molecular Sciences, 2023).

molecular target: T1, DNMT2 (Homo sapiens, UniProt O14717); assay: Microscale thermophoresis (MST) binding assay, DNMT2; details: DNMT2; ligand concentration 33, 100, 300 µM
T1 construct: made in house; host or cells: E. coli Rosetta2
T1 sequence (O14717 1-391): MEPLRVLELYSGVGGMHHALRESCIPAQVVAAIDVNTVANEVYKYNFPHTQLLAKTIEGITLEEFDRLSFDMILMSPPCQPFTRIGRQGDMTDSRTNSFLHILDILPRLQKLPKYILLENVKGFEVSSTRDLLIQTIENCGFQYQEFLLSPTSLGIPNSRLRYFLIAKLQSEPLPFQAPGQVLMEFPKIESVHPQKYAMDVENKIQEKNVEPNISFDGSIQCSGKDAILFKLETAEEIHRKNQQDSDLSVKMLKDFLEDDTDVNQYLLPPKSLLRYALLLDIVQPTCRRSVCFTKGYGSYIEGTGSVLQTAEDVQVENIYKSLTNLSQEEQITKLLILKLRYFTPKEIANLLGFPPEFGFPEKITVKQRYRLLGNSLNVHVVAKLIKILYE
Description: (§1) Since the constructs of DNMT2 and NSUN6 contain hexa-histidine tags, proteins were labeled using a Monolith His-Tag Labeling Kit RED-Tris-NTA 2nd generation according to the manufacturer’s instructions. This labeling strategy was chosen since it should prevent any interference with the actual binding site of the proteins. Labeled protein was diluted to a concentration of 20 nM into MST buffer (50 mM Hepes, pH 7.5, 150 mM NaCl, 10 mM MgCl2, 1 mM DTT, 0.05% polysorbate-20, 0.1% PEG-8000). All compounds were prepared as stocks dissolved in DMSO to a concentration of 50 mM. […] All measurements were performed on a Monolith Pico instrument (NanoTemper Technologies, Muenchen, Germany) with red light. To induce thermophoresis, medium MST power was selected for DNMT2 and high MST power for NSUN6. All experiments were performed in quadruplicates. […] Obtained dilutions were then mixed 1:1 with labeled protein (20 nM) and incubated for 5 min at room temperature prior to measurement. Experiments were performed in duplicates. All data received were analyzed using the MO. Affinity Analysis software version 2.3 (NanoTemper Technologies, Muenchen, Germany).

SMILES | MST pre-screening
Cc1n[nH]c(C)c1NC(=O)CN1CCN(C(=O)c2ccc(C(N)=O)s2)CC1 [Compound 1.2] | no concentration-dependent MST-shift (no binding)
CNC(=O)c1cccc(CN[C@H]2CCCN(C(=O)c3coc(C(N)=O)c3)C2)c1 [Compound 1.3] | no concentration-dependent MST-shift (no binding)
CNC(=O)c1cccc(CN2CCC[C@H](NC(=O)c3coc(C(N)=O)c3)C2)c1 [Compound 1.5] | no concentration-dependent MST-shift (no binding)
C[C@@H](NC(=O)Nc1ccc(C(N)=O)c(F)c1)c1cccc(N2CCOC2=O)c1 [Compound 1.9] | no concentration-dependent MST-shift (no binding)
O=C(NCc1cccc2ncccc12)Nc1ccc(C[C@H]2NC(=O)NC2=O)cc1 [Compound 1.12] | no concentration-dependent MST-shift (no binding)
Cc1ccc(F)c(-n2cc(O)c(C(=O)NNc3cc(O)nc4ncccc34)n2)c1 [Compound 1.16] | no concentration-dependent MST-shift (no binding)

same assay, conditions: MST dose-response curve, DNMT2, reference ligand

SMILES | Kd [µM]
Nc1ncnc2c1ncn2[C@@H]1O[C@H](CSCC[C@H](N)C(=O)O)[C@@H](O)[C@H]1O [SAH, S-adenosyl-L-homocysteine, reference compound] | 11.8

same assay, conditions: no MST shift at ligand concentration of up to 300 µM

SMILES | MST result DNMT2 ('off-target'/selectivity)
COc1ccc(C(=O)Nc2cccc(CN[C@H](CN)CO)c2)cc1 [Compound 2.8] | [drawing 33] No binding

same assay, conditions: selective = no MST shift for the other enzyme up to 300 µM

SMILES | selectivity for NSUN6 over DNMT2
COc1ccc(C(=O)Nc2cccc(CN[C@H](CN)CO)c2)cc1 [Compound 2.8] | selectivity

molecular target: T2, NSUN6 (Homo sapiens, UniProt Q8TEA1); assay: Microscale thermophoresis (MST) binding assay, NSUN6; details: MST dose-response curve, NSUN6, reference ligand; read-out: KD
T2 construct: host or cells: E. coli Rosetta2
T2 sequence (Q8TEA1 1-469): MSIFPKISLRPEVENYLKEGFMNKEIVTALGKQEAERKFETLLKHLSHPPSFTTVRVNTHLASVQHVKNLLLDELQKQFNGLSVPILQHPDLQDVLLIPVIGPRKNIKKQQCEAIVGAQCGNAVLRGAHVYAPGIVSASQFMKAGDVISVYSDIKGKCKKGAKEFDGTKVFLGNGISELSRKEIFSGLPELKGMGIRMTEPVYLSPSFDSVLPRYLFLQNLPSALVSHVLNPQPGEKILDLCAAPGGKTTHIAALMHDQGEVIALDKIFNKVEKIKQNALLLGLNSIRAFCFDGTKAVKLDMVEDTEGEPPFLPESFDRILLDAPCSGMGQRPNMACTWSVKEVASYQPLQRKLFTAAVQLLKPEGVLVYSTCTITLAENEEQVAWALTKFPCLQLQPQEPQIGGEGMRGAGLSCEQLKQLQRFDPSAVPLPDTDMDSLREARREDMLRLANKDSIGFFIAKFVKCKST
Description: as §1

SMILES | Kd [µM]
Nc1ncnc2c1ncn2[C@@H]1O[C@H](CSCC[C@H](N)C(=O)O)[C@@H](O)[C@H]1O [SAH, S-adenosyl-L-homocysteine, reference compound] | 9.1

same assay, conditions: MST dose-response curve, NSUN6; ≥ = lower limit, upper plateau not completely reached; read-out: KD,app

SMILES | Kd [µM]
CN1CCN(CC[C@@H](N)C(=O)Nc2ccc(-n3ccc(O)n3)c(F)c2)CC1 (racemic) [Compound 2.1] | ≥ 369
Cn1cnc([C@@H]2CNC[C@H]2C(=O)N2CCC[C@@H](CNC(=O)[C@H]3CCCN3)C2)c1 (racemic) [Compound 2.4] | 16.4
O=C(NCCN/C(O)=C1\N=CC=CC1=O)Nc1cccc2c1CNC2=O [Compound 1.4] | 12
Nc1ncnc2cc(C(=O)NCC(=O)Nc3ccc4c(c3)OCCO4)ccc12 [Compound 1.14] | ≥ 116
COc1ccc(C(=O)Nc2cccc(CN[C@H](CN)CO)c2)cc1 [Compound 2.8] | 42

same assay, conditions: NSUN6; ligand concentration 33, 100, 300 µM

SMILES | MST pre-screening
CN1CCN(CC[C@@H](N)C(=O)Nc2ccc(-n3ccc(O)n3)c(F)c2)CC1 (racemic) [Compound 2.1] | concentration-dependent MST-shift (binding)
Cn1cnc([C@@H]2CNC[C@H]2C(=O)N2CCC[C@@H](CNC(=O)[C@H]3CCCN3)C2)c1 (racemic) [Compound 2.4] | concentration-dependent MST-shift (binding)
N[C@H](CCS(N)(=O)=O)C(=O)Nc1ccc(C2CCNCC2)cc1 [Compound 2.3] | no concentration-dependent MST-shift (no binding)
CN1CCC[C@@H]1CCC(=O)Nc1c[nH]nc1C(=O)NCC(N)=O [Compound 2.6] | no concentration-dependent MST-shift (no binding)
COc1ccc(C(=O)Nc2cccc(CN[C@H](CN)CO)c2)cc1 [Compound 2.8] | concentration-dependent MST-shift (binding)
O=C([C@@H]1NC[C@@H](O)[C@H]1O)N1CCN([C@@H]2CCN(c3ccccc3)C2=O)CC1 [Compound 2.11] | no concentration-dependent MST-shift (no binding)
